Consider 47 compounds from US5929110A, “Fatty acid analogs and prodrugs” (G. D. Searle & Co., priority 1998, dated 1999).

Where only a bound is given, the exact number is not on record here.

For this test, the system named is HIV-1. The test can be described thus: inhibition of HIV-1; reduction of cytopathogenic effect in virus-infected Leu-3a-positive CEM cells (MTT assay). The following applies: Human immunodeficiency virus 1, CCRF-CEM, multiplicity of infection 0.1, MTT read on 7th to 9th day post-infection. Type of test: cell-based, strain HTVL-IIIB. On the procedure: Inhibitory activity against HIV-1 was shown by tests involving plating of susceptible human host cells which are syncytium-sensitive with and without virus in microculture plates, adding various concentrations of the test compound, incubating the plates for 7 to 9 days (during which time infected, non-drug treated control cells are largely or totally destroyed by the virus), and then determining the remaining number of viable cells with a colorometric endpoint.
Various illustrative compounds synthesized above were tested for inhibition of HIV-1 in a test which measured reduction of cytopathogenic effect in virus-infected syncytium-sensitive Leu-3a-positive CEM cells grown in tissue culture as follows:
Tissue culture plates were incubated at 37° C. in a humidified, 5% CO2 atmosphere and observed microscopically for toxicity and/or cytopathogenic effect (CPE). At 1 hour prior to infection each test article was prepared from the frozen stock, and a 20 μl volume of each dilution (prepared as a 10× concentration) was added to the appropriate wells of both infected and uninfected cells.
Assays were done in 96-well tissue culture plates. CEM cells were treated with polybrene at a concentration of 2 μg/ml, and an 80 μl volume of cells (1×10^4 cells) was dispensed into each well. A 100 μl volume of each test article dilution (prepared as a 2× concentration) was added to 5 wells of cells, and the cells were incubated at 37° C. for 1 hour. A frozen culture of HIV-1, strain HTVL-IIIB, was diluted in culture medium to a concentration of 5×10^4 TCID50 per ml, and a 20 μl volume (containing 10^3 TCID50 of virus) was added to 3 of the wells for each test article concentration. […] A 20 μl volume of normal culture medium was added to the remaining wells to allow evaluation of cytotoxicity. Each plate contained 6 wells of untreated, uninfected, cell control samples and 6 wells of untreated, infected, virus control samples.
On the 7th to 9th day post-infection, the cells in each well were resuspended and a 100 μl sample of each cell suspension was removed for use in an MTT assay. A 20 μl volume of a 5 mg/ml solution of 3-(4,5-dimethylthiazol-2-yl)-2,5-diphenyltetrazolium bromide (MTT) was added to each 100 μl cell suspension, and the cells were incubated at 37° C. in 5% CO2 for 4 hours. […] A 100 μl volume of a solution of 10% sodium dodecyl sulfate in 0.01N hydrochloric acid was added to each sample, and the samples were incubated overnight. The absorbance at 590 nm was determined for each sample using a Molecular Devices Vmax microplate reader. This assay detects drug-induced suppression of viral CPE, as well as drug cytotoxicity, by measuring the generation of MTT-formazan by surviving cells.
For orientation: EC50 means the concentration needed to bring the measured effect to its halfway point. A higher EC50 goes with a need for much substance. `COCCCCCCCOCCCC(=O)O` [Example 5, 4-[(7-Methoxyheptyl)oxy]butanoic Acid]: the EC50 is > 430 µM.

Compound `COCCCCCCCCCCCC(=O)O` [Example 1, 12-Methoxydodecanoic Acid] had an EC50 of 4.3 µM. This counts as single-digit micromolar.

In the case of `COCCCCCCCCCCCC(=O)N[C@H](Cc1ccccc1)C(=O)O` [Example 83, N-(12-Methoxy-1-oxododecyl)-D-phenylalanine], the EC50 is > 265 µM.

`CCOC(=O)CCNC(=O)CCCCCCCCCCCOC` [Example 30, N-(12-Methoxy-1-oxododecyl)-β-alanine, Ethyl ester] came in with an EC50 of 6.1 µM. This lies in the single-digit micromolar range.

Consider `CCn1nnnc1CCCCCCCCCCCOC` [Example 86A, 1-Ethyl-5-(11-methoxyundecyl)-1H-tetrazole], for which the EC50 was > 350 µM.

With `COCCCCCCCCCCCC(C)=O` [Example 89, 13-Methoxy-2-tridecanone], the EC50 was > 430 µM.

Regarding `CCCCCCCCCCOCCC(=O)N(CC)CC` [Example 19, 3-(Decyloxy)-N,N-diethylpropanamide], the EC50 was > 350 µM.

Regarding `CCOC(=O)[C@@H](C)NC(=O)CCCCCCCCCCCOC` [Example 34, N-(12-Methoxy-1-oxododecyl)-D-alanine, Ethyl ester], the concentration for a half-maximal effect (EC50) was > 300 µM.

With `CCOC(=O)CN(C(=O)CCCCCCCCCCCOC)c1ccccc1` [Example 28, N-(12-Methoxy-1-oxododecyl)-N-phenylglycine, Ethyl ester], the EC50 was > 250 µM.

In the case of `CCOC(=O)CN(CC(=O)OCC)C(=O)CCCCCCCCCCCOC` [Example 25, N-(2-Ethoxy-2-oxoethyl)-N-(12-methoxy-1-oxododecyl)glycine, Ethyl ester], the 50% effective concentration (EC50) is > 240 µM.

Regarding `CCOC(=O)[C@H](NC(=O)CCCCCCCCCCCOC)[C@H](C)OCc1ccccc1` [Example 80, N-(12-methoxy-1-oxododecyl)-O-(phenylmethyl)-D-threonine, Ethyl ester], the EC50 was > 225 µM.

`CCOC(=O)CNC(=O)CCCCCCCCCCCOC` [Example 21, N-(12-Methoxy-1-oxododecyl)-glycine, Ethyl ester] gave an EC50 of 8.6 µM.

In the case of `COCCCCCCCCCCCC(=O)OC` [Example 8, Methyl 12-Methoxydodecanoate], a half-maximal effect (EC50) was put at 6.1 µM.

In turn, `COCCCCCCCCCCCC(=O)NCCc1ccccc1` [Example 16, 12-Methoxy-N-(2-phenylethyl) dodecanamide] registered an EC50 of 4.5 µM.

With `COCCCCCCCCCCCC(N)=O` [Example 12, 12-Methoxydodecanamide], the midpoint of the response, the EC50, lay at 192 µM. This EC50 is about 43-fold higher than that of the compound before.

Consider `COCCCCCCCCCCCC(N)=S` [Example 13, 12-Methoxydodecanethioamide], for which the EC50 is > 400 µM.

As for `CCOC(=O)C(C)CNC(=O)CCCCCCCCCCCOC` (centres unmarked) [Example 36, Ethyl 2-[[(12-methoxy-1-oxododecyl)amino]-2-methyl]propanoate], the midpoint of the response, the EC50, lay at 5.8 µM.

For `CCOC(=O)CNC(=O)CNC(=O)CCCCCCCCCCCOC` [Example 24, N-[N-(12-Methoxy-1-oxododecyl)glycyl]glycine, Ethyl ester], the EC50 was > 260 µM.

`CCOC(=O)CN(C)C(=O)CCCCCCCCCCCOC` [Example 26, N-(12-Methoxy-1-oxododecyl)-N-methylglycine, Ethyl ester]: the concentration giving a half-maximal response (EC50) is > 300 µM.

The compound `CCOC(=O)[C@H](CCC(=O)OCc1ccccc1)NC(=O)CCCCCCCCCCCOC` [Example 59, N-(12-methoxy-1-oxododecyl)-L glutamic acid, 1-Ethyl 5-(Phenylmethyl) ester] registered an EC50 of 7.3 µM.

With `COCCCCCCCCCCCC(=O)N[C@H](Cc1ccccc1)C(=O)OC(C)(C)C` [Example 54, N-(12-Methoxy-1-oxododecyl)-D-phenylalanine, 1,1-Dimethylethyl ester], the EC50 was > 230 µM.

`CCCCCCCCCCOCCC#N` [Example 6, 3-(Decyloxy)propanenitrile]: the EC50 was > 470 µM.

Turning to `CCOC(=O)[C@@H](NC(=O)CCCCCCCCCCCOC)[C@@H](C)CC` [Example 45, N-(12-Methoxy-1-oxododecyl)-L-isoleucine, Ethyl ester], the concentration giving a half-maximal response (EC50) was < 2.7 µM.

In the case of `CCCCCCCCCCOCCC(=O)O` [Example 7, 3-(Decyloxy)propanoic Acid], the response was half-maximal at 18.7 µM (EC50).

In turn, `CCOC(=O)[C@H](CCCCNC(=O)OCc1ccccc1Cl)NC(=O)CCCCCCCCCCCOC` [Example 65, N6-[[(2-Chlorophenyl)methoxy]carbonyl]-N2-(12-methoxy-1oxododecyl)-L-lysine, Ethyl ester] displayed a concentration giving a half-maximal response (EC50) of 7.4 µM.

Regarding `COCCCCCCCCCCCC(=O)NCC(=O)OC(C)(C)C` [Example 23], the EC50 is 9.3 µM.

On to `CCOC(=O)[C@@H](CCC(=O)OCc1ccccc1)NC(=O)CCCCCCCCCCCOC` [Example 62, N-(12-methoxy-1-oxododecyl)-D-glutamic acid, 1-Ethyl 5-(Phenylmethyl) ester], for which the 50% effective concentration (EC50) is > 205 µM.

As for `CCOC(=O)[C@@H](Cc1ccccc1)NC(=O)CCCCCCCCCCCOC` [Example 52, N-(12-Methoxy-1-oxododecyl)-D-phenylalanine, Ethyl ester], the EC50 is > 245 µM.

Consider `CCCCCCCCCCOCCC(=O)N[C@@H](Cc1ccccc1)C(=O)OCC` [Example 55, N-(3-(Decycloxy)-1-oxopropyl]-L-phenylalanine, Ethyl ester], for which the concentration for a half-maximal effect (EC50) was > 240 µM.

For `CCN(CC)C(=O)CCCCCCCCCCCOC` [Example 15, N,N-Diethyl-12-methoxydodecanamide], the EC50 was > 350 µM.

Compound `CCOC(=O)C(CNC(=O)CCCCCCCCCCCOC)Cc1ccccc1` (stereo not drawn) [Example 42, Ethyl α-[[(12-Methoxy-1-oxododecyl)amino]methyl]benzenepropanoate] had an EC50 of 6.4 µM.

As for `CCOC(=O)[C@H](C)NC(=O)CCCCCCCCCCCOC` [Example 31, N-(12-Methoxy-1-oxododecyl)-L-alanine, Ethyl ester], a half-maximal response (EC50) required 24 µM.

Consider `COCCCCCCCCCCCc1nnn(Cc2ccccc2)n1` [Example 87B, 5-(11-Methoxyundecyl)-2-(phenylmethyl)-2H-tetrazole], for which the EC50 is > 290 µM.

For the compound `CCOC(=O)[C@H](NC(=O)CCCCCCCCCCCOC)[C@H](C)CC` [Example 48, N-(12-Methoxy-1-oxododecyl)-D-isoleucine, Ethyl ester], the EC50 is > 265 µM.

The compound `COCCCCCCCCCCCC(=O)N[C@@H](Cc1ccccc1)C(=O)O` [Example 82, N-(12-Methoxy-1-oxododecyl)-L-phenylalanine] yielded a concentration for a half-maximal effect (EC50) of 13 µM.

In turn, `COCCCCCCCCCCCC(=O)NCC(=O)O` [Example 81] displayed an EC50 of 27.5 µM. This EC50 is about 2.1-fold higher than that of the compound before.

Regarding `COCCCCCCCCCCCc1nnnn1Cc1ccccc1` [Example 87A, 5-(11-Methoxyundecyl)-1-(phenylmethyl)-1H-tetrazole], the EC50 was > 290 µM.

On to `CCn1nnc(CCCCCCCCCCCOC)n1` [Example 86B, 2-Ethyl-5-(11-methoxyundecyl)-2H-tetrazole], for which the EC50 was > 350 µM.

With `CCOC(=O)CCCCCCCCCCCOC` [Example 9, Ethyl 12-Methoxydodecanoate], the EC50 stood at 16.6 µM.

`CCOC(=O)[C@@H](NC(=O)CCCCCCCCCCCOC)[C@@H](C)OCc1ccccc1` [Example 77, N-(12-methoxy-1-oxododecyl)-O-(phenylmethyl)-L-threonine, Ethyl ester] came in with a half-maximal effective concentration (EC50) of 11.8 µM.

Consider `COCCCCCCCCCCCC(=O)N[C@@H](Cc1ccccc1)C(=O)OC(C)(C)C` [Example 50, N-(12-Methoxy-1-oxododecyl)-L-phenylalanine, 1,1-Dimethylethyl ester], for which the concentration for a half-maximal effect (EC50) came out at 11.1 µM.

The compound `CCOC(=O)[C@H](C)CNC(=O)CCCCCCCCCCCOC` [Example 39, Ethyl 3-[[(12-methoxy-1-oxododecyl)amino]-2R-methyl]propanoate] gave a concentration giving a half-maximal response (EC50) of 6.7 µM.

As for `CCCCCCCCCCOCCC(=O)NCC(=O)OCC` [Example 29, N-[3-(Decyloxy)-1-oxopropyl]glycine, Ethyl ester], the EC50 is > 315 µM.

For `COCCCCCCCCCCCCO` [Example 88, 12-Methoxydodecanol], the EC50 was > 450 µM.

For the compound `CCOC(=O)CN(Cc1ccccc1)C(=O)CCCCCCCCCCCOC` [Example 22, N-(12-Methoxy-1-oxododecyl)-N-(phenylmethyl)-glycine, Ethyl ester], the concentration for a half-maximal effect (EC50) is > 245 µM.

Take `COCCCCCCCCCCCC#N` [Example 84, 12-Methoxydodecanenitrile]: the EC50 is > 470 µM.

Take `CCCCCCCCCCOCCC(=O)NCc1ccccc1` [Example 20, 3-(Decyloxy)-N-(phenylmethyl)propanamide]: the EC50 is > 310 µM.
